According to the supplement of paper PMC10307832:

Experiments:
Assay in all cases: relative viability (nuclei count vs DMSO), 5 days (fraction); higher = more cells survive
[1] = compound: CC1=NN=C(O1)C2=NN=C(C=C2)N3CCC(CC3)OC4=C(C=CC(=C4)F)Cl + Cc1nc(Nc2ncc(C(=O)Nc3c(C)cccc3Cl)s2)cc(N2CCN(CCO)CC2)n1 [Dasatinib] (partner 0.075 µM)
In short: (§1)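 Five library-drug doses in √10 steps were combined with a fixed anchor-drug dose, or a single drug was given alone, by pin tool to lung cancer cell lines in 1536-well plates the day after seeding. Nuclei were stained and counted after 5 days. Relative viability is the nuclei count in treated wells over that in vehicle wells, taken as the median of duplicate plates.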

Tosedostat + Lapatinib = compound: CC(C)C[C@@H](C(=O)N[C@H](C(=O)OC1CCCC1)c1ccccc1)[C@H](O)C(=O)NO [Tosedostat] + CS(=O)(=O)CCNCc1ccc(-c2ccc3ncnc(Nc4ccc(OCc5cccc(F)c5)c(Cl)c4)c3c2)o1 [Lapatinib] (partner 2 µM)
In short: as §1

Tosedostat + Foretinib = compound: CC(C)C[C@@H](C(=O)N[C@H](C(=O)OC1CCCC1)c1ccccc1)[C@H](O)C(=O)NO [Tosedostat] + COc1cc2c(Oc3ccc(NC(=O)C4(C(=O)Nc5ccc(F)cc5)CC4)cc3F)ccnc2cc1OCCCN1CCOCC1 [Foretinib] (partner 0.25 µM)
In short: as §1

[2] = compound: CC1=NN=C(O1)C2=NN=C(C=C2)N3CCC(CC3)OC4=C(C=CC(=C4)F)Cl + O=C(c1cc(Cc2n[nH]c(=O)c3ccccc23)ccc1F)N1CCN(C(=O)C2CC2)CC1 [Olaparib] (partner 8 µM)
In short: as §1

Cell Line: UMC-11
- relative viability ([1]; first compound 0.253 µM): 0.473
- relative viability ([1]; first compound 0.8 µM): 0.476
- relative viability ([1]; first compound 2.53 µM): 0.512
- relative viability ([1]; first compound 8 µM): 0.435
- relative viability (Tosedostat + Lapatinib; first compound 0.02 µM): 1.05
- relative viability (Tosedostat + Lapatinib; first compound 0.06325 µM): 1.01
- relative viability (Tosedostat + Lapatinib; first compound 0.2 µM): 0.957
- relative viability (Tosedostat + Lapatinib; first compound 0.6325 µM): 1.19
- relative viability (Tosedostat + Lapatinib; first compound 2 µM): 0.96
- relative viability (Tosedostat + Foretinib; first compound 0.02 µM): 1.22
- relative viability (Tosedostat + Foretinib; first compound 0.06325 µM): 0.969
- relative viability (Tosedostat + Foretinib; first compound 0.2 µM): 1.02
- relative viability (Tosedostat + Foretinib; first compound 0.6325 µM): 1.09
- relative viability (Tosedostat + Foretinib; first compound 2 µM): 1.03
- relative viability ([2]; first compound 0.253 µM): 0.244
- relative viability ([2]; first compound 0.8 µM): 0.379
- relative viability ([2]; first compound 2.53 µM): 0.396
- relative viability ([2]; first compound 8 µM): 0.233
